US11420970B1 (NOVARTIS AG, priority 2019, dated 2022)
Like-named read-outs stand apart in the source and are kept apart here.

Experiments:
[1] = system: cellular H3K36me2 level in thyroid carcinoma cell line CGTH-W-1 (NSD2 E1099K); assay: H3K36me2 cellular ELISA assay in CGTH-W-1 line; assay type: cell-based; details: Homo sapiens, CGTH-W-1, 72 h, read-out: H3K36me2 ELISA in CGTH-W-1
Outline: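 CGTH-W-1 thyroid carcinoma cells (NSD2 E1099K gain-of-function) exposed to compound for 72 hours. Histone-bound plates probed for H3K36me2 and total H3 by chemiluminescent ELISA. Viability checked on a parallel plate with CellTiter-Glo.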

[2] = system: cellular H3K36me2 level in multiple myeloma cell line KMS11 (t(4;14)+); assay: H3K36me2 cellular ELISA assay in KMS11-Par line; assay type: cell-based; details: Homo sapiens, KMS-11, ELISA, read-out: H3K36me2 ELISA in KMS11-Par
Outline: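 KMS11 cells were seeded a day ahead at 1,250 per well in Opti-MEM with B-27/N2, then treated with compound for 72 h. Histones were acid-extracted with 0.4M HCl, and H3K36me2 and total H3 were read by chemiluminescent ELISA. Viability was checked with CellTiter-Glo on a parallel plate in maintenance media.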

NSD2 [1-1365] = NSD2 [1-1365] (Homo sapiens (Human), UniProt O96028); assay: LC-MS/MS-based NSD2 enzymatic assay (SAH production); assay type: biochemical; details: read-out: NSD2 IC50
Outline: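 Full-length NSD2 [1-1365] (8 nM final) with 1 μM SAM and 400 nM mouse-liver nucleosome in Tris pH 8.0 buffer; inhibitor preincubated 20 min with enzyme/SAM before nucleosome addition. Reaction 90 min at room temperature, TFA-quenched; SAH quantified by LC-MS/MS against d4-SAH internal standard and SAH standard curve.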

[3] = KMS11-Par line (t(4;14)+), 72 hours treatment
[4] = NSD2 biochemical activity, class symbols

NSD2 [1-1365], sequence (O96028 whole entry): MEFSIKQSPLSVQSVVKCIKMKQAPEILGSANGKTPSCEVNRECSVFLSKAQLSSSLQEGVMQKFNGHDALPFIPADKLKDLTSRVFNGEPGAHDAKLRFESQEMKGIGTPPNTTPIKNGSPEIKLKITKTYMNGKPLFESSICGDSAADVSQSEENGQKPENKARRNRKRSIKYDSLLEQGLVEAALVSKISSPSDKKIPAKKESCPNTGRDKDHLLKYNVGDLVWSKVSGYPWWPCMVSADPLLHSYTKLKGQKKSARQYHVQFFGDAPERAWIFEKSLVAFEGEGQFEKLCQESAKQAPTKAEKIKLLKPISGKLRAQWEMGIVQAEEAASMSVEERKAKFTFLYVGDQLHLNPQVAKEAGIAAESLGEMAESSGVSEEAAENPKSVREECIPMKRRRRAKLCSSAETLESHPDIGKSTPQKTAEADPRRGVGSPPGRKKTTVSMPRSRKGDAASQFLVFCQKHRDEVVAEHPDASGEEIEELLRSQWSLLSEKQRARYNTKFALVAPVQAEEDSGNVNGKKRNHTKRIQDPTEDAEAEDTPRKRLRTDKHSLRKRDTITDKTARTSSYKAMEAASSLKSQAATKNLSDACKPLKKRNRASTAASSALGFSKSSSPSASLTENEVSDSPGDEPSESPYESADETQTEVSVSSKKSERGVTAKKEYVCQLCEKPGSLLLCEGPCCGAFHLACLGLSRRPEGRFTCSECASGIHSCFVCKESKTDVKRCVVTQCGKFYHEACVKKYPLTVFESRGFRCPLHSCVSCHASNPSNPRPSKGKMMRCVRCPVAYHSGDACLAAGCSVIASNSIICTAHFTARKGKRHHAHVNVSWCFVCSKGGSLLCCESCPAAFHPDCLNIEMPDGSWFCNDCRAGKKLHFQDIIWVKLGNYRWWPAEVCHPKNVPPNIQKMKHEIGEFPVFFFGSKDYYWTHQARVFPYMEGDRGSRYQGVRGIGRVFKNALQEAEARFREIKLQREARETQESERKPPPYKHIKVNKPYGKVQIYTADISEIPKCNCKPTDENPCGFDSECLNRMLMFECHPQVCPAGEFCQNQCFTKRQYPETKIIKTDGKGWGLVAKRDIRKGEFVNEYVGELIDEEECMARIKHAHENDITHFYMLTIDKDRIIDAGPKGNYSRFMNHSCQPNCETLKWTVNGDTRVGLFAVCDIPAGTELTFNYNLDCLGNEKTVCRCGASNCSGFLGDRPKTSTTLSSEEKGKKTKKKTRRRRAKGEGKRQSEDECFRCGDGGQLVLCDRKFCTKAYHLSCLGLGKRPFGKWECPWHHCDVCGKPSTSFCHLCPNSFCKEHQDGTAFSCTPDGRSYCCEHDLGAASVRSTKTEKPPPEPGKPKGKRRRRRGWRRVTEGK

Compound	IC50 [1] [nM]	IC50 ([2]; KMS11-Par line, 72 hours) [nM]	IC50 (NSD2 [1-1365]) [nM]	IC50 [2, 3] [nM]	IC50 (NSD2 [1-1365]; [4]) [nM]
COc1ccc(-c2cc(Cn3cnc4c(N)ncnc43)c(N3CCC[C@](N)(c4ccc(F)c(Cl)n4)C3)cn2)cc1 [Example 216, (R)-9-((5-(3-amino-3-(6-chloro-5-fluoropyridin-2-yl)piperidin-1-yl)-2-(4-methoxyphenyl)pyridin-4-yl)methyl)-9H-purin-6-amine]	1880	2570	10 to 1000		
CC(O)c1ccc([C@@]2(N)CCCN(c3cnc(-c4ccc(F)c(F)c4)cc3Cn3cnc4c(N)ncnc43)C2)nc1Cl (stereo partly drawn) [Example 234, 1-(6-((R)-3-amino-1-(4-((6-amino-9H-purin-9-yl)methyl)-6-(3,4-difluorophenyl)pyridin-3-yl)piperidin-3-yl)-2-chloropyridin-3-yl)ethan-1-ol]	1620	5990	10 to 1000		
COc1ccc(-c2cc(Cn3cnc4c(N)ncnc43)c(N3CCC[C@](N)([C@@H](O)C(F)F)C3)cn2)cc1Cl [Example 121, (R)-1-((R)-3-amino-1-(4-((6-amino-9H-purin-9-yl)methyl)-6-(3-chloro-4-methoxyphenyl)pyridin-3-yl)piperidin-3-yl)-2,2-difluoroethan-1-ol]	683			2610	1 to 10
COc1ccc(-c2cc(Cn3cnc4c(N)ncnc43)c(N3CCC[C@](N)([C@@H](O)C(F)F)C3)cn2)c(Cl)c1 [Example 169, (R)-1-((R)-3-amino-1-(4-((6-amino-9H-purin-9-yl)methyl)-6-(2-chloro-4-methoxyphenyl)pyridin-3-yl)piperidin-3-yl)-2,2-difluoroethan-1-ol]	426	2990	10 to 1000		
Nc1ncnc2c1ncn2Cc1cc(-c2ccc(C(F)(F)F)cc2F)ncc1N1CCC[C@](N)([C@@H](O)C(F)F)C1 [Example 141, (R)-1-((R)-3-amino-1-(4-((6-amino-9H-purin-9-yl)methyl)-6-(2-fluoro-4-(trifluoromethyl)phenyl)pyridin-3-yl)piperidin-3-yl)-2,2-difluoroethan-1-ol]	1150			7700	10 to 1000
CC(C)[C@H](O)[C@@]1(N)CCCN(c2cnc(-c3ccc(F)c(F)c3)cc2Cn2cnc3c(N)ncnc32)C1 [Example 98, (S)-1-((R)-3-amino-1-(4-((6-amino-9H-purin-9-yl)methyl)-6-(3,4-difluorophenyl)pyridin-3-yl)piperidin-3-yl)-2-methylpropan-1-ol]	1500			6260	10 to 1000
Nc1ncnc2c1ncn2Cc1cc(-c2ccc(F)c(F)c2)ncc1N1CCCC(N)(c2ccc(O)c(F)n2)C1 (stereo not drawn) [Example 214, 6-(3-amino-1-(4-((6-amino-9H-purin-9-yl)methyl)-6-(3,4-difluorophenyl)pyridin-3-yl)piperidin-3-yl)-2-fluoropyridin-3-ol]	444	2430	10 to 1000		
Nc1ncnc2c1ncn2Cc1cc(-c2ccc(F)c(F)c2)ncc1N1CCC[C@](N)(c2ccccn2)C1 [Example 198, (R)-9-((5-(3-amino-3-(pyridin-2-yl)piperidin-1-yl)-2-(3,4-difluorophenyl)pyridin-4-yl)methyl)-9H-purin-6-amine]	17.7	41	1 to 10		
CC(C)C(=O)[C@@]1(N)CCCN(c2cnc(-c3ccc(F)c(F)c3)cc2Cn2cnc3c(N)ncnc32)C1 [Example 104, (R)-1-(3-amino-1-(4-((6-amino-9H-purin-9-yl)methyl)-6-(3,4-difluorophenyl)pyridin-3-yl)piperidin-3-yl)-2-methylpropan-1-one]	26			60	10 to 1000
Nc1ncnc2c1ncn2Cc1cc(-c2ccc(Cl)cc2F)ncc1N1CCC[C@](N)([C@@H](O)C(F)F)C1 [Example 133, (R)-1-((R)-3-amino-1-(4-((6-amino-9H-purin-9-yl)methyl)-6-(4-chloro-2-fluorophenyl)pyridin-3-yl)piperidin-3-yl)-2,2-difluoroethan-1-ol]	177			1610	10 to 1000
Nc1ncnc2c1ncn2Cc1cc(-c2ccc(F)c(Cl)c2)ncc1N1CCC[C@](N)([C@H](O)C(F)F)C1 [Example 139, (S)-1-((R)-3-amino-1-(4-((6-amino-9H-purin-9-yl)methyl)-6-(3-chloro-4-fluorophenyl)pyridin-3-yl)piperidin-3-yl)-2,2-difluoroethan-1-ol]	669			2840	10 to 1000
Nc1ncnc2c1ncn2Cc1cc(-c2ccc(F)c(F)c2)ncc1N1CCC[C@](N)(c2cc(O)cc(Cl)n2)C1 [Example 219, (R)-2-(3-amino-1-(4-((6-amino-9H-purin-9-yl)methyl)-6-(3,4-difluorophenyl)pyridin-3-yl)piperidin-3-yl)-6-chloropyridin-4-ol]	407	3450	1 to 10		
C[C@@H](F)c1cccc([C@@]2(N)CCCN(c3cnc(-c4ccc(F)cc4)cc3Cn3cnc4c(N)ncnc43)C2)n1 [Example 212, 9-((5-((R)-3-amino-3-(6-((R)-1-fluoroethyl)pyridin-2-yl)piperidin-1-yl)-2-(4-fluorophenyl)pyridin-4-yl)methyl)-9H-purin-6-amine]	132	289	10 to 1000		
Nc1ncnc2c1ncn2Cc1cc(-c2cnc(F)c(Cl)c2)ncc1N1CCC[C@](N)(c2cccc(Cl)n2)C1 [Example 180, (R)-9-((5-(3-amino-3-(6-chloropyridin-2-yl)piperidin-1-yl)-5′-chloro-6′-fluoro-[2,3′-bipyridin]-4-yl)methyl)-9H-purin-6-amine]	1460	5490	10 to 1000		
COc1cc(F)ccc1-c1cc(Cn2cnc3c(N)ncnc32)c(N2CCC[C@](N)([C@H](O)C(F)F)C2)cn1 [Example 173, (S)-1-((R)-3-amino-1-(4-((6-amino-9H-purin-9-yl)methyl)-6-(4-fluoro-2-methoxyphenyl)pyridin-3-yl)piperidin-3-yl)-2,2-difluoroethan-1-ol]	1040	12800	10 to 1000		
Nc1ncnc2c1ncn2Cc1cc(-c2ccc(OC(F)F)c(F)c2)ncc1N1CCC[C@](N)([C@@H](O)C(F)F)C1 [Example 119, (R)-1-((R)-3-amino-1-(4-((6-amino-9H-purin-9-yl)methyl)-6-(4-(difluoromethoxy)-3-fluorophenyl)pyridin-3-yl)piperidin-3-yl)-2,2-difluoroethan-1-ol]	228			1490	1 to 10
Nc1ncnc2c1ncn2Cc1cc(-c2cc(F)c(F)cc2C(F)F)ncc1N1CCC[C@](N)([C@@H]2COCCO2)C1 [Example 291, 9-((5-((R)-3-amino-3-((R)-1,4-dioxan-2-yl)piperidin-1-yl)-2-(2-(difluoromethyl)-4,5-difluorophenyl)pyridin-4-yl)methyl)-9H-purin-6-amine]	812	1690	10 to 1000		
Nc1ncnc2c1ncn2Cc1cc(-c2ccc(Cl)cc2F)ncc1N1CCC[C@](N)([C@H](O)C(F)F)C1 [Example 148, (S)-1-((R)-3-amino-1-(4-((6-amino-9H-purin-9-yl)methyl)-6-(4-chloro-2-fluorophenyl)pyridin-3-yl)piperidin-3-yl)-2,2-difluoroethan-1-ol]	671			2160	10 to 1000
Nc1ncnc2c1ncn2Cc1cc(-c2ccc(F)cc2F)ncc1N1CCC[C@](N)(c2cccc(Cl)n2)C1 [Example 238, (R)-9-((5-(3-amino-3-(6-chloropyridin-2-yl)piperidin-1-yl)-2-(2,4-difluorophenyl)pyridin-4-yl)methyl)-9H-purin-6-amine]	588	1340	1 to 10		
Nc1ncnc2c1ncn2Cc1cc(-c2ccc(F)c(Cl)n2)ncc1N1CCC[C@](N)(c2cccc(Cl)n2)C1 [Example 191, (R)-9-((5-(3-amino-3-(6-chloropyridin-2-yl)piperidin-1-yl)-6′-chloro-5′-fluoro-[2,2′-bipyridin]-4-yl)methyl)-9H-purin-6-amine]	1380	4560	10 to 1000		
Nc1ncnc2c1ncn2Cc1cc(-c2ccc(F)c(F)c2)ncc1N1CCC[C@](N)([C@@H](O)C(F)F)C1 [Example 113, (R)-1-((R)-3-amino-1-(4-((6-amino-9H-purin-9-yl)methyl)-6-(3,4-difluorophenyl)pyridin-3-yl)piperidin-3-yl)-2,2-difluoroethan-1-ol]	145			753	10 to 1000
Nc1ncnc2c1ncn2Cc1cc(-c2ccc(F)c(F)c2)ncc1N1CCC[C@](N)([C@H](F)c2ccccn2)C1 [Example 91, 9-((5-((R)-3-amino-3-((S)-fluoro(pyridin-2-yl)methyl)piperidin-1-yl)-2-(3,4-difluorophenyl)pyridin-4-yl)methyl)-9H-purin-6-amine]	121			890	1 to 10
